Results on 20 compounds are retold here after patent publication US11512042B2, “Enamine compounds for absorbance of electromagnetic energy” (Commonwealth Scientific and Industrial Research Organisation, priority 2015, dated 2022).

Several values for one entry are separate records, joined by “and”; a condition that tells them apart may be missing. Identical values can stand only once. Marks after values point to notes of the source that are not given here.

Common to all, as to assay type: physicochemical
The nature of series [1]: UV absorbance spectrum in solution (λmax, λcrit, extinction coefficients). Conditions: for λcrit: critical wavelength; for E (1%, 1 cm): mass extinction coefficient; for ε: molar extinction coefficient, in M-1 cm-1 (unit assumed). Summed up:
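Spectra taken on 0.001% solutions in methanol, 10 mm path. Breakthrough is the wavelength where transmittance rises above 1%; steepness is the nm span over which transmittance goes from 1 to 80%.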

Series [2] can be described thus: PMMA film in QUV Weatherometer. Conditions: type A bulbs, 70° C. 8 hours then dark humid 50° C. 4 h. How it is done:
In order to gauge longer term photostability, the PMMA film samples were evaluated in a QUV Weatherometer using type A bulbs with solar irradiance at 70° C. for 8 hours followed by heating in the dark under a humid atmosphere at 50° C. for 4 h. The film was then sandwiched between 2 glass slides to prevent deformation and irradiated. The samples were evaluated by a visual comparison and measurement of transmittance spectra. […] This clearly indicates the suitability of compounds of the first aspect to incorporation into polymeric matrices and films. The relevant transmission spectra are shown in FIG. 11 (142), FIG. 12 (143), FIG. 13 (164), FIG. 14 (213) and FIG. 15 (215) wherein in all of these figures the lower plateau line represents the result following radiation and the upper line prior to irradiation.

Series [3] in a line: Photostability protocol: thin film irradiated with xenon arc lamp. The settings on record: 1 hour xenon arc lamp; for Photostability: ratio of absorbance at λmax irradiated vs unirradiated, ^a = average of multiple measurements. Summed up:
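A 3% solution in EtOH/triglyceride/alkyl benzoate is dried on glass slides into a liquid film of 1.5 mg compound. Films are irradiated 1 h with a Pyrex-filtered 150 W xenon arc lamp (about 100 MED, below 30° C). Washings are read by UV; stability is absorbance at λmax relative to unirradiated film.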

Series [4] can be described thus: % transmission spectrum of 0.1% solution (breakthrough, steepness). Conditions: for Steepness: distance in nm over which transmittance increases from 1 to 80%; for Breakthrough (1% T at 0.1%): value in nm where transmittance increases beyond 1%, 0.1% solution. Summed up:
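Transmission was recorded for 0.1% methanol solutions in a 2 mm cuvette. Breakthrough is the wavelength (nm) at which transmittance exceeds 1%; steepness is the nm span over which transmittance rises from 1 to 80%. Some values are averages of multiple measurements.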

As to `CCCCC(CC)COC(=O)c1ccc2c(c1)CCN2/C=C(\C(=O)C(F)(F)F)c1ccccc1` (stereo not drawn) [Compound 215], in series [1], the λmax worked out at 374 nm; the λcrit is reported as 391 nm; the “E (1%, 1 cm)” value worked out at 1067; the ε amounted to 50515. In series [2], the “Longer term photostability in PMMA film” value is given as “little sign of decomposition after irradiation”. In addition, the “Photostability (% remains)” value in series [3] was determined as 85%.
Consider `CC(C)(C)OC(=O)C(=O)/C(=C/N1CCc2ccccc21)c1ccccc1` [Compound 267], for which, in series [1], the λmax turned out to be 366 nm; the λcrit stood at 389 nm; the “E (1%, 1 cm)” value was found to be 940; the ε was 32824. In addition, in series [4], the Steepness was determined as 32 nm and the “Breakthrough (1% T at 0.1%)” value is on record as 417 nm. Besides, the Photostability in series [3] was 76%.
Consider `COC(=O)c1ccc2c(c1)CCN2/C=C(/C(=O)C(=O)N1CCc2ccccc21)c1ccccc1` [Compound 305], for which, in series [1], the λmax stood at 375 nm; the λcrit was determined as 391 nm; the “E (1%, 1 cm)” value stood at 1078; the ε was found to be 48709. In series [4], the Steepness is on record as 23 nm and the “Breakthrough (1% T at 0.1%)” value came to 417 nm. Besides, the Photostability in series [3] is 80% and 75%.
On to `Cc1ccccc1C(=O)/C(=C/N1CCc2ccccc21)c1ccccc1` [Compound 251], for which, in series [1], the λmax is on record as 355 nm; the λcrit was determined as 378 nm; the “E (1%, 1 cm)” value came out at 991; the ε is recorded as 33598. In series [4], the Steepness is reported as 30 nm and the “Breakthrough (1% T at 0.1%)” value was 399 nm. Also, in series [3], the Photostability is recorded as 52%.
As for `COC(=O)c1ccc2c(c1)CCN2/C=C(/C(=O)C(=O)OC(C)(C)c1ccccc1)c1ccccc1` [Compound 280], in series [1], the λmax came to 357 nm; the λcrit is 370 nm; the “E (1%, 1 cm)” value is on record as 1440; the ε is on record as 67567. Also, in series [4], the Steepness is 21 nm and the “Breakthrough (1% T at 0.1%)” value was found to be 384 nm. In addition, the Photostability in series [3] is 68%.
Regarding `COC(=O)c1ccc2c(c1)CCN2/C=C(/C(=O)C(C)(C)C)c1ccccc1` [Compound 283], in series [1], the λmax is 367 nm; the λcrit was found to be 384 nm; the “E (1%, 1 cm)” value is recorded as 1339; the ε was 48637. Besides, in series [4], the Steepness is on record as 16 nm and the “Breakthrough (1% T at 0.1%)” value turned out to be 401 nm. For the same compound, the Photostability in series [3] was 87% and 88%.
For the compound `CN(C)C(=O)C(=O)/C(=C\N1CCc2ccccc21)c1ccccc1` [Compound 258], in series [1], the λmax is recorded as 359 nm; the λcrit is listed as 384 nm; the “E (1%, 1 cm)” value stood at 1045; the ε came out at 33443. Besides, in series [4], the Steepness is on record as 23 nm and the “Breakthrough (1% T at 0.1%)” value is 409 nm. Further, in series [3], the Photostability stood at 63%.
Consider `CCCN(/C=C(/C(=O)C(F)(F)F)c1ccccc1)c1ccccc1` [Compound 233], for which, in series [1], the λmax is recorded as 331 nm; the λcrit came out at 365 nm; the “E (1%, 1 cm)” value is 734; the ε stood at 24467. In addition, in series [4], the Steepness is listed as 36 nm and the “Breakthrough (1% T at 0.1%)” value is 380 nm. Further, in series [3], the Photostability turned out to be 87%.
On to `CCN(/C=C(/C(=O)c1ccc(S(=O)(=O)N(C)C)cc1)c1ccccc1)c1ccccc1` [Compound 264], for which, in series [1], the λmax came out at 340 nm; the λcrit is 381 nm; the “E (1%, 1 cm)” value was 433; the ε was determined as 18791. Moreover, in series [4], the Steepness was 46 nm and the “Breakthrough (1% T at 0.1%)” value was 403 nm. Also, in series [3], the Photostability amounted to 20%.
Consider `CCN(/C=C(\C(=O)C(F)(F)F)c1ccccc1)CC` [Compound 144], for which, in series [1], the λmax is given as 319 nm; the λcrit stood at 350 nm; the “E (1%, 1 cm)” value turned out to be 860; the ε was 23306. For the same compound, in series [4], the Steepness is recorded as 23 nm and the “Breakthrough (1% T at 0.1%)” value was found to be 361 nm. Further, in series [3], the “Photostability (% remains)” value is on record as 97% and the Photostability worked out at 97%.
In the case of `CCOC(=O)C(=O)/C(=C/N(CC)CC)c1ccccc1` [Compound 260], in series [1], the λmax was 313 nm; the λcrit is given as 352 nm; the “E (1%, 1 cm)” value is listed as 726; the ε came out at 19983. Moreover, in series [4], the Steepness is reported as 38 nm and the “Breakthrough (1% T at 0.1%)” value was 363 nm. Also, in series [3], the Photostability was 40%.
Consider `COC(=O)c1ccc2c(c1)CCN2/C=C(\C(=O)C(F)(F)F)c1ccccc1` [Compound 201], for which, in series [1], the λmax was determined as 373 nm; the λcrit came out at 391 nm; the “E (1%, 1 cm)” value is given as 1230; the ε was 46134. Besides, in series [4], the Steepness is listed as 18 nm and the “Breakthrough (1% T at 0.1%)” value worked out at 420 nm. In addition, in series [3], the “Photostability (% remains)” value turned out to be 97% and the Photostability was 97%.
Consider `O=C(/C(=C/N1CCc2ccccc21)c1ccccc1)c1ccccc1` [Compound 243], for which, in series [1], the λmax was 361 nm; the λcrit was 386 nm; the “E (1%, 1 cm)” value is 893; the ε is reported as 29026. Moreover, in series [4], the Steepness came to 37 nm and the “Breakthrough (1% T at 0.1%)” value was 420 nm. Further, the Photostability in series [3] was 70%.
Consider `CCN(/C=C(/C(=O)C(=O)N(C)C)c1ccccc1)CC` [Compound 261], for which, in series [1], the λmax was determined as 310 nm; the λcrit was found to be 342 nm; the “E (1%, 1 cm)” value was 844; the ε worked out at 23144. For the same compound, in series [4], the Steepness came to 28 nm and the “Breakthrough (1% T at 0.1%)” value is 355 nm. Further, the Photostability in series [3] is reported as 63%.
As to `Cc1ccc(C(=O)/C(=C/N(c2ccccc2)c2ccccc2)c2ccccc2)cc1` [Compound 274], in series [1], the λmax is recorded as 353 nm; the λcrit was 384 nm; the “E (1%, 1 cm)” value is recorded as 420; the ε was 16369. Moreover, in series [4], the Steepness stood at 42 nm and the “Breakthrough (1% T at 0.1%)” value is on record as 411 nm. Further, the Photostability in series [3] was 76%.
With `Cc1cc(C)c(C(=O)/C(=C/N(c2ccccc2)c2ccccc2)c2ccccc2)c(C)c1` [Compound 254], in series [1], the λmax stood at 341 nm; the λcrit is on record as 369 nm; the “E (1%, 1 cm)” value turned out to be 661; the ε was found to be 27592. In series [4], the Steepness is 32 nm and the “Breakthrough (1% T at 0.1%)” value is listed as 383 nm. Further, the Photostability in series [3] is recorded as 88^a %.
With `CCN(/C=C(/C(=O)C(=O)OC(C)(C)C)c1ccccc1)c1ccccc1` [Compound 271], in series [1], the λmax is listed as 332 nm; the λcrit is on record as 366 nm; the “E (1%, 1 cm)” value was 530; the ε stood at 18592. Also, in series [4], the Steepness is 36 nm and the “Breakthrough (1% T at 0.1%)” value is recorded as 381 nm. Further, in series [3], the Photostability came to 75%.
Regarding `CCCCC(CC)COC(=O)c1ccc2c(c1)CCN2C=C(C(=O)c1c(C)cc(C)cc1C)c1ccccc1` (stereo not drawn) [Compound 303], in series [1], the λmax is 369 nm; the λcrit is listed as 382 nm; the “E (1%, 1 cm)” value is listed as 1164; the ε turned out to be 60921. Also, in series [4], the Steepness is recorded as 24 nm and the “Breakthrough (1% T at 0.1%)” value is reported as 399 nm. Besides, in series [3], the Photostability is 94% and 93%.
Take `CCOC(=O)C(=O)/C(=C\N(CC)c1ccccc1)c1ccccc1` [Compound 248]: in series [1], the λmax is listed as 329 nm; the λcrit came to 368 nm; the “E (1%, 1 cm)” value was 728; the ε is reported as 23523. In series [4], the Steepness came to 38 nm and the “Breakthrough (1% T at 0.1%)” value was determined as 383 nm. The Photostability in series [3] was 78%.
As for `CCN(/C=C(/C(=O)c1ccc(C)cc1)c1ccccc1)c1ccccc1` [Compound 273], in series [1], the λmax was determined as 336 nm; the λcrit is on record as 376 nm; the “E (1%, 1 cm)” value amounted to 614; the ε is reported as 20922. Also, in series [4], the Steepness is listed as 37 nm and the “Breakthrough (1% T at 0.1%)” value turned out to be 394 nm. Also, the Photostability in series [3] amounted to 73%.
